These results are taken from PubChem BioAssay AID1259408 (Genetic Toxicology Data Bank (GENE-TOX), 2018).

The data set has as its system GENE-TOX genotoxicity assays, various organisms and cells. Briefly: GENE-TOX mutagenicity studies. As to conditions: for call: Assay Type: In vivo carcinogenicity studies, Assay Code: CCG+.
Where [1] appears, read: Species/Cell Type: Escherichia coli polA (W3119 vs P3478), Assay Type: Rec-assay, DNA effects (bacterial DNA repair), Assay Code: RE1T, Evaluation Type: Evaluation A (Pre-1980).
[2] abbreviates: Species/Cell Type: Human diploid fibroblasts, Assay Type: Unscheduled DNA synthesis (UDS) in vitro, DNA effects, Assay Code: UDH-, Evaluation Type: Evaluation A (Pre-1980).
Setting [3] is: Species/Cell Type: Saccharomyces cerevisiae, Assay Type: Mitotic recombination or gene conversion, Assay Code: YEH-, Evaluation Type: Evaluation A (Pre-1980).
Setting [4] is: Species/Cell Type: Salmonella typhimurium (one or more of the five standard strains: TA98, TA100, TA1535, TA1537, and TA1538), Assay Type: Histidine reverse gene mutation, Ames assay, Assay Code: SAL-, Evaluation Type: Evaluation A (Pre-1980).
The mark [5] stands for this setting: Species/Cell Type: Nonhuman, Evaluation Type: Evaluation A (Pre-1980).
Where [6] appears, read: Species/Cell Type: Drosophila melanogaster, Assay Type: Sex-linked recessive lethal gene mutation, Assay Code: SRL+, Evaluation Type: Evaluation A (Pre-1980).
[7] abbreviates: Species/Cell Type: Salmonella typhimurium (one or more of the five standard strains: TA98, TA100, TA1535, TA1537, and TA1538), Assay Type: Histidine reverse gene mutation, Ames assay, Assay Code: SAL+*, Activation: With metabolic activation, Evaluation Type: Evaluation A (Pre-1980).
[8] abbreviates: Species/Cell Type: Salmonella typhimurium (one or more of the five standard strains: TA98, TA100, TA1535, TA1537, and TA1538), Assay Type: Histidine reverse gene mutation, Ames assay, Assay Code: SAL+, Evaluation Type: Evaluation A (Pre-1980).
The mark [9] stands for this setting: Species/Cell Type: Saccharomyces cerevisiae, Assay Type: Mitotic recombination or gene conversion, Assay Code: YEC+, Evaluation Type: Evaluation A (Pre-1980).

Calls of active or inactive are those of the source. The rule behind the calls is not given here.

On to `Cc1c(C(=O)O)c(O)cc2c1C(=O)c1c(O)c([C@@H]3O[C@@H](CO)[C@H](O)[C@@H](O)[C@H]3O)c(O)c(O)c1C2=O`, for which the mutagenic call by setting is: (Species/Cell Type: Bacillus subtilis (H17 vs M45), Assay Type: Rec-assay, spot test, DNA effects (bacterial DNA repair), Assay Code: REWT, Evaluation Type: Evaluation A (Pre-1980)) “no conclusion”; (Species/Cell Type: Bacillus subtilis (H17 vs M45T), Assay Type: Rec-assay, spot test, DNA effects (bacterial DNA repair), Assay Code: REXT, Evaluation Type: Evaluation A (Pre-1980)) “no conclusion”.

On to `C=CCNC(=O)OC1(Sc2ccccc2)C(=O)c2ccccc2C1=O`, for which the mutagenic call (Species/Cell Type: Salmonella typhimurium, Assay Type: Forward and reverse gene mutation, host-mediated assay, Assay Code: HMAT, Evaluation Type: Evaluation A (Pre-1980)) is on record as “no conclusion”.

Consider `CC(=O)Nc1cc2c(cc1O)-c1ccccc1C2`, for which the mutagenic call reads like this: (Species/Cell Type: Drosophila melanogaster, Assay Type: Sex-linked recessive lethal gene mutation, Assay Code: SRLT, Evaluation Type: Evaluation A (Pre-1980)) “no conclusion”; (Species/Cell Type: Escherichia coli polA (W3110 vs P3478), Assay Type: Rec-assay, DNA effects (bacterial DNA repair), Assay Code: RE2-, Evaluation Type: Evaluation A (Pre-1980)) “inactive; negative”; under setting [1], “no conclusion”; under setting [2], “inactive; negative”; under setting [3], “inactive; negative”; under setting [4], “inactive; negative”.

On to `CN(C)C(=O)Nc1cccc(C(F)(F)F)c1`, for which, where the note is “Species/Cell Type: Saccharomyces cerevisiae, Assay Type: Mitotic recombination or gene conversion, Assay Code: YEC-, Evaluation Type: Evaluation A (Pre-1980)”, the mutagenic call was “inactive; negative”.

On to `O=C(CCl)c1ccccc1`, for which the mutagenic call (Species/Cell Type: Drosophila melanogaster, Assay Type: Sex-linked recessive lethal gene mutation, Assay Code: SRL-, Evaluation Type: Evaluation A (Pre-1980)) is “inactive; negative”.

For `O=C1OC(CN2CCOCC2)CN1/N=C/c1ccc([N+](=O)[O-])o1` (configuration not stated), the mutagenic call was “active; positive” (Species/Cell Type: Escherichia coli WP2, Assay Type: Tryptophan reverse gene mutation, Assay Code: WP2+, Evaluation Type: Evaluation A (Pre-1980)); “active; positive” (Species/Cell Type: Escherichia coli WP2 UVRA, Assay Type: Tryptophan reverse gene mutation, Assay Code: WPU+, Evaluation Type: Evaluation A (Pre-1980)); “active; positive” (Species/Cell Type: Escherichia coli WP2 UVRA, Assay Type: Tryptophan reverse gene mutation, Assay Code: WPU+D, Dose Response: With dose response, Evaluation Type: Evaluation A (Pre-1980)). Also, under setting [5], the call is “active; positive”.

As to `OCc1c2ccccc2c2ccc3cccc4ccc1c2c43`, the mutagenic call is “active; positive” (Species/Cell Type: Chinese hamster lung (V79) cells, Assay Type: Forward gene mutation at the HPRT or ouabain locus, Assay Code: V79+*, Activation: With metabolic activation, Evaluation Type: Evaluation A (Pre-1980)); “active; positive” under setting [6]; “active; positive” under setting [7]. Further, under setting [5], the call was “active; positive”.

Turning to `CN1C(C(=O)Nc2ccccn2)=C(O)c2ccccc2S1(=O)=O`, for the setting “Species/Cell Type: Human lymphocytes, Assay Type: Sister-chromatid exchange (SCE) in vivo, Assay Code: SCY+, Evaluation Type: Evaluation B (Post-1980)”, the mutagenic call is “active; positive”.

Regarding `CCSCC[C@H](N)C(=O)O`, the mutagenic call reads like this: (Species/Cell Type: Escherichia coli polA (W3110 vs P3478), Assay Type: Rec-assay, DNA effects (bacterial DNA repair), Assay Code: RE2T, Evaluation Type: Evaluation A (Pre-1980)) “no conclusion”; under setting [1], “no conclusion”; under setting [2], “inactive; negative”; (Species/Cell Type: Human lymphocytes, Assay Type: Sister-chromatid exchange (SCE) in vitro, Assay Code: SCL+, Evaluation Type: Evaluation B (Post-1980)) “active; positive”; (Species/Cell Type: Human, Assay Type: Sister-chromatid exchange (SCE) in vitro, Assay Code: SC1+, Evaluation Type: Evaluation B (Post-1980)) “active; positive”; (Species/Cell Type: Mammalian polychromatic erythrocytes, Assay Type: Micronucleus test, chromosome aberrations, Assay Code: MNT+, Evaluation Type: Evaluation A (Pre-1980)) “active; positive”. Also, the mutagenic call (Species/Cell Type: Mouse, Sex: Male, Assay Type: Sperm morphology, Assay Code: SPI+, Evaluation Type: Evaluation A (Pre-1980)) was “active; positive”; the mutagenic call under setting [3] is “inactive; negative”; the mutagenic call under setting [4] was “inactive; negative”; the mutagenic call (Species/Cell Type: Salmonella typhimurium, Assay Type: Forward and reverse gene mutation, host-mediated assay, Assay Code: HMA-, Evaluation Type: Evaluation A (Pre-1980)) was “inactive; negative”; the mutagenic call (Species/Cell Type: Syrian hamster embryo (SHE) cells, Assay Type: Cell transformation, clonal assay, Assay Code: CTC+, Evaluation Type: Evaluation A (Pre-1980)) was “active; positive”.

As to `CS(=O)(=O)OCCCNCCCOS(C)(=O)=O`, the mutagenic call under setting [8] is “active; positive”.

On to `Cc1cc2c(c3ccc4ccccc4c13)CCC2=O`, for which the mutagenic call (Species/Cell Type: Human lymphocytes, Assay Type: Sister-chromatid exchange (SCE) in vitro, Assay Code: SCL+D*, Activation: With metabolic activation, Dose Response: With dose response, Evaluation Type: Evaluation B (Post-1980)) was “active; positive”; the mutagenic call (Species/Cell Type: Human, Assay Type: Sister-chromatid exchange (SCE) in vitro, Assay Code: SC1+D*, Activation: With metabolic activation, Dose Response: With dose response, Evaluation Type: Evaluation B (Post-1980)) was “active; positive”; the mutagenic call (Species/Cell Type: Nonhuman, Assay Type: Sister-chromatid exchange (SCE) in vivo, Assay Code: SC3+, Evaluation Type: Evaluation B (Post-1980)) was “active; positive”; the mutagenic call under setting [7] is “active; positive”.

On to `CCOc1ccc(CC(=O)NN)cc1CN(CC)CC`, for which, for the setting “Species/Cell Type: Saccharomyces cerevisiae, Assay Type: Reverse gene mutation, Assay Code: YERT, Evaluation Type: Evaluation A (Pre-1980)”, the mutagenic call is recorded as “no conclusion”.

As to `CC(C)C[C@H]1C(=O)N2CCC[C@H]2[C@]2(O)O[C@](NC(=O)[C@@H]3C=C4c5cccc6[nH]c(Br)c(c56)C[C@H]4N(C)C3)(C(C)C)C(=O)N12`, the mutagenic call by setting is: (Species/Cell Type: Human lymphocytes, Assay Type: Sister-chromatid exchange (SCE) in vitro, Assay Code: SCLT, Evaluation Type: Evaluation B (Post-1980)) “no conclusion”; (Species/Cell Type: Human, Assay Type: Sister-chromatid exchange (SCE) in vitro, Assay Code: SC1T, Evaluation Type: Evaluation B (Post-1980)) “no conclusion”; (Species/Cell Type: Human, Sex: Male, Assay Type: Sperm morphology, Assay Code: SPH-, Evaluation Type: Evaluation A (Pre-1980)) “inactive; negative”.

For `COc1ccc(-c2csc(N)n2)cc1`, under “Species/Cell Type: Salmonella typhimurium, Serratia marcesens, Assay Type: Forward and reverse gene mutation, host-mediated assay, Assay Code: HM2T, Evaluation Type: Evaluation A (Pre-1980)”, the mutagenic call is given as “no conclusion”.

On to `c1ccc2c(c1)cnc1ccccc12`, for which, under setting [7], the mutagenic call is “active; positive”.

As to `Cn1cccc1CO`, the mutagenic call (Species/Cell Type: Human lymphocytes, Assay Type: Sister-chromatid exchange (SCE) in vitro, Assay Code: SCL+D, Dose Response: With dose response, Evaluation Type: Evaluation B (Post-1980)) was “active; positive” and the mutagenic call (Species/Cell Type: Human, Assay Type: Sister-chromatid exchange (SCE) in vitro, Assay Code: SC1+D, Dose Response: With dose response, Evaluation Type: Evaluation B (Post-1980)) is “active; positive”.

Consider `CN(C)N=Nc1c(Br)cc(Br)cc1Br`, for which the mutagenic call reads like this: under setting [6], “active; positive”; under setting [9], “active; positive”.

For `CCNP(=O)(N1CC1)N1CC1`, the mutagenic call (Species/Cell Type: Nonhuman bone marrow, Assay Type: Chromosome aberrations, in vivo, Assay Code: CY#+, Evaluation Type: Evaluation A (Pre-1980)) was “active; positive”; the mutagenic call (Species/Cell Type: Nonhuman, Assay Type: Chromosome aberrations in vitro, Assay Code: CY&+, Evaluation Type: Evaluation A (Pre-1980)) is “active; positive”; the mutagenic call (Species/Cell Type: Schizosaccharomyces pombe, Assay Type: Reverse gene mutation, Assay Code: YEZ+, Evaluation Type: Evaluation A (Pre-1980)) is “active; positive”.

In the case of `CCOC(=O)N(CCO)N=O`, the mutagenic call under setting [8] was “active; positive”.

For the molecule `O=C(NO)c1ccccc1`, the mutagenic call under setting [8] is “active; positive”.

As for `CC(C)N(C(=O)CCl)c1ccccc1`, the mutagenic call under setting [9] is “active; positive”.
